In data set [1] the test system is DoHH2 (lymphoma) cell line. The experiment in a line: DiOC6(3) flow evaluation of cell viability and apoptosis, DoHH2 (lymphoma) cell line. Format: cell-based, human. The following applies: for Percentage Cell Viability: DoHH2 cells, 50 μM; for cytotoxicity at 50 µM / viability at 50 µM: Homo sapiens, DOHH-2, DoHH2 cells. How it is done:
DiOC6(3) flow evaluation of cell viability and levels of apoptosis was carried out at 10 and 50 μm concentrations. For each entry in FIG. 1, % apoptosis is on the left and % viable is on the right.
Measurement of Mitochondrial Membrane Potential depolarisation and mitochondrial permeability transition (MPT). Cells were incubated for 20 minutes at 37° C. in the dark with the cationic lipophillic (amphipathic) probe 3,3′-dihexyloxacarbocyanine iodide, DiOC6(3) (80 nM), then counter stained for 10 minutes with propidium iodide (20 μg/ml). DiOC6(3) is sequestered within the mitochondrial matrix due to the inner membrane potential (Δψm), according to the Nernst equation, dissipation leading to a reduction in mitochondrial retention and decreased cellular DiOC6(3) fluorescence. Collapse of Δψm was prevented by incubating cells for 30 minutes with 50 μM bongkrekic acid. Events with increased propidium iodide fluorescence were subtracted, by gating, from the DiOC6(3) histograms to eliminate dead cells, with loss of plasma membrane integrity. Dose-response curves used the calculated proportion of DiOC6(3)low, cells as the dependent variable on the ordinate. To measure MPT directly, cells were incubated with 1 μM calcein AM for 30 minutes, followed by 1 mM […] cobalt. Cobalt quenches calcein fluorescence, but cannot traverse an intact inner mitochondrial membrane to enter the mitochondrial matrix, to which calcein equilibrates. Opening of the PTPC allows cobalt to enter, reducing calcein fluorescence.
The Lymphoma cell line (DoHH2) was treated with PK11195 and various compounds of the invention at doses of 10 and 50 μmol concentrations. Levels of cell viability and apoptosis were measured by DiOC6 flow evaluation. DiOC6 is a fluorescent dye which acts as a surrogate marker of mitochondrial depolarisation. Uptake of DiOC6 and consequent fluorescence is a measure of opening of the permeability transition pore complex (PTPC).
The following tables set out % viability and % apoptosis results seen for treatment of DoHH2 cells with certain compounds of the invention at a dosage of 50 μM, in comparison with untreated cells. The assay procedure used was as described above in respect of “Treatment of DoHH 2 (Lymphoma) Cell Line”.

Another data set concerns DoHH2 cells. The experiment in a line: Superoxide purging with MnTBAP, apoptosis in DoHH2 cells. Format: cell-based, human. The following applies: with and without ROS scavenger MnTBAP. How it is done:
For each entry in FIG. 2, DAPI viable is on the left and DAPI non viable is on the right.
O^2-• was detected by incubating cells for 15 minutes in 5 μM dihydroethidium, which is oxidized to ethidium. To test the effect of O^2-• […] on O^2-• generation, cells were treated with 100 μM MnTBAP for 45 minutes. Hydrogen peroxide was detected by loading cells for 30 minutes with 5 μM CM-H2DCFDA, and its formation inhibited by preincubation with 500 U/ml catalase for 30 minutes. Dose-response curves for CM-H2DCFDA used the calculated proportion of CM-H2DCFDAhigh cells as the dependent variable.
DoHH2 cells were exposed to AAW-001, AAW-0014 and PK11195 in the presence and absence of the mitochondrial reactive oxygen species (ROS) scavenger MnTBAP.

Data set [2] relates to human lymphoma DoHH2 cell line xenograft. Nature of the data set: DoHH2 xenograft NOD/SCID mice. Format: in vivo. Conditions: for mice alive at 10 weeks: cohorts of ten mice. The method, then: NOD/SCID mice xenografted with the human lymphoma DoHH2 cell line were treated two weeks post inoculation with the human B cell lymphoma cell line DoHH2. There were three cohorts of ten mice. For two cohorts, treatment consisted of 50 microgram intraperitoneal (IP) doses twice weekly for three weeks of PK11195 or AAW-0014, respectively. The third cohort was treated with 200 microlitres of saline twice weekly over a 3 week period. The mice were then observed for up to six weeks. All of the saline treated mice were dead due to disease at 10 weeks. […] All of the AAW-0014 treated mice were alive at 10 weeks showing less than 20% splenic involvement, including 2 mice with no detectable disease.

[3] abbreviates: average of repeats, read-out: Percentage Cell Apoptosis, Averages.
The mark [4] stands for this setting: average of repeats, read-out: Percentage Cell Viability, Averages.
The mark [5] stands for this setting: individual repeats, read-out: Percentage Cell Apoptosis.
[6] abbreviates: 50 microgram IP twice weekly for three weeks.
Where [7] appears, read: at 10 weeks, 50 microgram IP twice weekly for three weeks.
[8] abbreviates: individual repeats, read-out: Percentage Cell Viability.

Structures are written as SMILES. “And” between values parts separate entries of the source, which are not always exact repeats. Identical values can stand only once. Like-named read-outs stand apart in the source and are kept apart here.

As a reminder, the viability is a per cent measure of how many cells are alive, often set against a control.

`CC(C)C(=O)Nc1cc2c(c(-c3ccccc3Cl)c1)CCN(C(=O)C(F)(F)F)C2` [CO-AAW0001, N-[5-(2-chloro-phenyl)-2-(2,2,2-trifluoro-acetyl)-1,2,3,4-tetrahydro-isoquinolin-7-yl]-isobutyramide]: the “Percentage Cell Viability” value in data set [1] (individual repeats, listed as 1, 50 µM) is 73.8% and 67.7% and 47.9% and 62.5% and 48.0% and 52.8% and 52.9% and 48.5% and 68.4% and 65.4%. In addition, in data set [1] (setting [3]), the cytotoxicity at 50 µM was 52.8%. Besides, the viability at 50 µM in data set [1] (setting [4]) came to 59.7%.

`CC(C)C(=O)Nc1cc2ccccc2c(-c2ccccc2Cl)n1` [CO-AAW0007]: in data set [1] (individual repeats, listed as 7, 50 µM), the “Percentage Cell Viability” value was 63.9% and 88.2%. The cytotoxicity at 50 µM in data set [1] (setting [3]) amounted to 26.1%. In addition, the viability at 50 µM in data set [1] (setting [4]) was determined as 76.1%.

As for `CCC(C)C(=O)Nc1cc2ccccc2c(-c2ccccc2Cl)n1` (centres unmarked) [CO-AAW0008], the “Percentage Cell Viability” value in data set [1] (individual repeats, listed as 8, 50 µM) was 54.1% and 81.7%. Besides, the figures for the cytotoxicity at 50 µM in data set [1] (setting [3]) and in data set [1] (setting [5]) were 39.2% and 48.8%, respectively. In addition, the viability at 50 µM in data set [1] (setting [4]) came to 67.9%.

On to `CC(C)NC(=O)c1cc2ccccc2c(-c2ccccc2Cl)n1` [CO-AAW0009], for which, in data set [1] (individual repeats, listed as 9, 50 µM), the “Percentage Cell Viability” value is 48.8% and 90.5%. The cytotoxicity at 50 µM in data set [1] (setting [3]) stood at 32.4%. The viability at 50 µM in data set [1] (setting [4]) was found to be 69.9%.

`CCCCC(=O)Nc1nc2c(c(-c3ccccc3Cl)n1)CN(Cc1ccccc1)CC2` [CO-AAW00014, pentanoic acid [6-benzyl-4-(2-chloro-phenyl)-5,6,7,8-[4,3-d]pyrimidin-2-yl]-amide]: in data set [1] (individual repeats, listed as 14, 50 µM), the “Percentage Cell Viability” value is 68.8% and 42.3% and 39.4% and 65.8% and 51.8% and 54.3% and 49.6%. In addition, the cytotoxicity at 50 µM in data set [1] (setting [3]) is 65.5%. In addition, the viability at 50 µM in data set [1] (setting [4]) worked out at 53.1%. Further, the “ability to induce apoptosis in the presence of MnTBAP” value with DoHH2 cells was “inhibited by MnTBAP”. In data set [2] (setting [6]), the drug related toxicities result is recorded as “No major drug related toxicities were observed” and the “mice alive at 10 weeks” value is “All”. Besides, the splenic involvement entry in data set [2] (setting [7]) is “less than 20%”. Moreover, the “mice with no detectable disease” value in data set [2] (at 10 weeks, of ten mice) was determined as 2.

For `O=C(Nc1nc2c(c(-c3ccccc3Cl)n1)CN(Cc1ccccc1)CC2)c1cccc(Cl)c1Cl` [CO-AAW00016, N-[6-benzyl-4-(2-chlorophenyl)-5H,6H,7H,8H-pyrido[4,3-d]pyrimidin-2-yl]-2,3-dichlorobenzamide], the “Percentage Cell Viability” value in data set [1] (individual repeats, listed as 16, 50 µM) worked out at 76.5%. Besides, the figures for the cytotoxicity at 50 µM in data set [1] (setting [3]) and in data set [1] (setting [5]) were 33.5% and 33.4%, respectively. The values for the viability at 50 µM in data set [1] (setting [4]) and in data set [1] (setting [8]) were 77.5% and 78.5%, respectively.

On to `CCCC(=O)N1CCc2c(cc([N+](=O)[O-])cc2-c2ccccc2Cl)C1` [CO-AAW00017, 1-[5-(2-chlorophenyl)-7-nitro-1,2,3,4-tetrahydroisoquinolin-2-yl]butan-1-one], for which the “Percentage Cell Viability” value in data set [1] (individual repeats, listed as 17, 50 µM) was found to be 68.4%. The figures for the cytotoxicity at 50 µM in data set [1] (setting [3]) and in data set [1] (setting [5]) were 49.2% and 43%, respectively. The values for the viability at 50 µM in data set [1] (setting [4]) and in data set [1] (setting [8]) were 71.3% and 74.2%, respectively.

As to `CC(C)NC(=O)c1cc2ccccc2c(-c2c(Cl)cccc2Cl)n1` [CO-AAW00018], the “Percentage Cell Viability” value in data set [1] (individual repeats, listed as 18, 50 µM) turned out to be 79.2%. The cytotoxicity at 50 µM came to 24.1% in data set [1] (setting [3]) and 25.6% in data set [1] (setting [5]). In addition, the viability at 50 µM in data set [1] (setting [4]) was determined as 82%; in data set [1] (setting [8]), 84.8%.

With `CNC(=O)c1cc2ccccc2c(-c2ccccc2Cl)n1` [CO-AAW00020], in data set [1] (individual repeats, listed as 20, 50 µM), the “Percentage Cell Viability” value is on record as 78.7%. The cytotoxicity at 50 µM turned out to be 17.3% in data set [1] (setting [3]) and 17.1% in data set [1] (setting [5]). Besides, the viability at 50 µM in data set [1] (setting [4]) amounted to 75.7%; in data set [1] (setting [8]) it was 72.7%.

Turning to `CCCCNC(=O)c1cc2ccccc2c(-c2ccccc2Cl)n1` [CO-AAW00022], the “Percentage Cell Viability” value in data set [1] (individual repeats, listed as 22, 50 µM) was 19.4%. Further, the cytotoxicity at 50 µM amounted to 65.4% in data set [1] (setting [3]) and 62.9% in data set [1] (setting [5]). For the same compound, the viability at 50 µM in data set [1] (setting [4]) worked out at 28.4%; in data set [1] (setting [8]) it was 37.4%.

For the compound `CC(C)C(=O)Nc1cc2c(c(-c3ccccc3Cl)c1)CCN(C(=O)c1ccccc1)C2` [CO-AAW00025, N-[2-Benzoyl-5-(2-chloro-phenyl)-1,2,3,4-tetrahydroisoquinolin-7-yl]2-methylpropanamide], the “Percentage Cell Viability” value in data set [1] (individual repeats, listed as 25, 50 µM) is 56.3% and 78.8%. For the same compound, the values for the cytotoxicity at 50 µM in data set [1] (setting [3]) and in data set [1] (setting [5]) were 15.4% and 19.7%, respectively. Moreover, in data set [1] (setting [4]), the viability at 50 µM amounted to 67.6%.

Regarding `CCCCC(=O)Nc1cc2c(c(-c3ccccc3Cl)c1)CCN(C(=O)C(F)(F)F)C2` [CO-AAW00030, pentanoic acid [5-(2-chlorophenyl)-2-(2,2,2-trifluoro-acetyl)-1,2,3,4-tetrahydro-isoquinolin-7-yl]amide], the cytotoxicity at 50 µM in data set [1] (setting [3]) and in data set [1] (setting [5]) was 61.2% throughout. Besides, the viability at 50 µM in data set [1] (setting [4]) and in data set [1] (setting [8]) was 64.3% throughout.

Regarding `CCC(C)N(C)C(=O)c1cc2ccccc2c(-c2ccccc2Cl)n1` (centres unmarked) [PK11195, 1-(2-chlorophenyl)-N-methyl-N-(1-methylpropyl)-3-isoquinolinecarboxamide, reference compound], in data set [2] (setting [7]), the “disease on splenic assessment on culling” value is given as “moderate levels of disease”. In data set [2] (setting [6]), the “mice alive at 10 weeks” value is listed as “Five of the ten”.

Values taken from patent US8716302B2, “Compounds for inducing cellular apoptosis” (Queen Mary & Westfield College, priority 2009, dated 2014).
